Structures are written as SMILES. Where two headings read alike, the source gives them in different places.

From patent publication US11407736B2 (priority 2019, dated 2022) come the findings set out here.

In test [1] the test system is U937 cells. As to the kind of experiment: U937 cell necroptosis assay (TNFa + zVAD, CellTiter-Glo). The class given is cell-based, human. The settings on record: Homo sapiens. The method, boiled down: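 Necroptosis was induced with TNFa at 2 ng/mL final for 18 h at 37 °C, following 1 h compound pre-incubation in the presence of zVAD-fmk (60 uM for U937 plating medium, 40 uM for L929 medium). Luminescent CellTiter-Glo signal gave relative cell survival.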

Test [2] has as its system L929 cells. As to the kind of experiment: L929 cell necroptosis assay (TNFa + zVAD, CellTiter-Glo). In kind it is cell-based, murine. As to conditions: Mus musculus. The method, boiled down:
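Necroptosis was read as CellTiter-Glo luminescence 18 hours after TNFa stimulation at 37° C, 5% CO2. Prior to that, L929 cells (10K/well, plated 18 h) received fresh medium with 40 uM zVAD-fmk plus 4-fold serially diluted compound.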

The target in test [3] is RIPK1 (Homo sapiens (Human), UniProt Q13546). The test is described as follows: RIPK1 ADP-Glo biochemical kinase assay. How it is done: The final reaction volume was 5.0ul.
Chain of RIPK1 (Q13546 whole entry, species assumed): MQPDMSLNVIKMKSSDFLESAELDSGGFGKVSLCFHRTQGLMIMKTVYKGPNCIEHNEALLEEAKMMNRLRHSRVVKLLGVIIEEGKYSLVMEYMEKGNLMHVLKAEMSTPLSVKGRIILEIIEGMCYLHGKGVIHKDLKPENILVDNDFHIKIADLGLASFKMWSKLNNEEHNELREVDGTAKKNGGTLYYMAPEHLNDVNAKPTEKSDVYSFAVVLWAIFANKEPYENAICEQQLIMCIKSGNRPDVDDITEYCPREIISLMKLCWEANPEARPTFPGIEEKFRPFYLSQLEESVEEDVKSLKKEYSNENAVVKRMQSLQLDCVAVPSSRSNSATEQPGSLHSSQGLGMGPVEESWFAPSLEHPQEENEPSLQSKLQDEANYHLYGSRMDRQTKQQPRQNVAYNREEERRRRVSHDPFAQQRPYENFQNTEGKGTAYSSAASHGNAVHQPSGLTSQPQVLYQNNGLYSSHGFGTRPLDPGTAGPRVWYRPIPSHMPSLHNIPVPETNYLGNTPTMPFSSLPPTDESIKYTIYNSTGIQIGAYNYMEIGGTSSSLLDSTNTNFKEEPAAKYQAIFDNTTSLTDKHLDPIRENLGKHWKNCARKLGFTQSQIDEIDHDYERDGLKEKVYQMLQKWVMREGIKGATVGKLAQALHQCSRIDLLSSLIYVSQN
Adding 5 μl of ADP-Glo™ terminated the reaction.

The mark [4] stands for this setting: U-937, U937 cells, TNFa + zVAD, read-out: U937 Zvad TNF CTG Recovery, U937, TNFa + zVAD (IC50).
Where [5] appears, read: L929, L929 cells, TNFa + zVAD, read-out: L929-CTG-recovery, L929, TNFa + zVAD (IC50).
Where [6] appears, read: read-out: RIPK1 ADP-Glo Kinase (IC50).
Setting [7] is: U-937, read-out: U937 Zvad TNF CTG Recovery, U937, TNFa + zVAD (IC50), U937 cells, TNFa + zVAD.
Setting [8] is: L929, read-out: L929-CTG-recovery, L929, TNFa + zVAD (IC50), L929 cells, TNFa + zVAD.

As to `CN1C(=O)[C@@H](NC(=O)c2n[nH]c(Cc3ccccc3)n2)COc2ccc(CN3CCn4c(nnc4C(F)(F)F)C3)cc21` [Compound I-47, (S)-5-benzyl-N-(5-methyl-4-oxo-7-((3-(trifluoromethyl)-5,6-dihydro-[1,2,4]triazolo[4,3-a]pyrazin-7(8H)-yl)methyl)-2,3,4,5-tetrahydrobenzo[b][1,4]oxazepin-3-yl)-1H-1,2,4-triazole-3-carboxamide], the IC50 in test [1] (setting [4]) came out at 4.6 nM; in test [2] (setting [5]), 1.5 nM; in test [3] (setting [6]), 68.3 nM.
In the case of `CN1C(=O)[C@@H](NC(=O)n2cc(Cc3ccc(F)cc3F)cn2)COc2ccc(Br)cc21` [Compound I-237, (S)—N-(7-Bromo-5-methyl-4-oxo-2,3,4,5-tetrahydrobenzo[b][1,4]oxazepin-3-yl)-4-(2,4-difluorobenzyl)-1H-pyrazole-1-carboxamide], the IC50 was determined as 135 nM in test [1] (setting [4]), 15500 nM in test [2] (setting [5]) and 43.1 nM in test [3].
As for `CN1C(=O)[C@@H](NC(=O)c2n[nH]c(Cc3ccccc3)n2)COc2ccc(C#CCCOc3cccc4ncccc34)cc21` [Compound I-45, (S)-5-benzyl-N-(5-methyl-4-oxo-7-(4-(quinolin-5-yloxy)but-1-yn-1-yl)-2,3,4,5-tetrahydrobenzo[b][1,4]oxazepin-3-yl)-1H-1,2,4-triazole-3-carboxamide], the IC50 in test [1] (setting [4]) was determined as 1.4 nM; in test [2] (setting [5]), 0.3 nM; in test [3] (setting [6]), 82.5 nM.
In the same order, the values of `CN1C(=O)[C@@H](NC(=O)c2cc(Oc3ccccc3)ccn2)COc2ccc(C#CC3(OC(=O)NCCCN4CCOCC4)COC3)cc21` [Compound I-130] are 1.5 nM, 89.5 nM and 30.8 nM.
In the same order, the values of `CN1C(=O)[C@@H](NC(=O)c2n[nH]c(Cc3ccccc3)n2)COc2ccc(CCCO)cc21` [Compound I-14, (S)-5-benzyl-N-(7-(3-hydroxypropyl)-5-methyl-4-oxo-2,3,4,5-tetrahydrobenzo[b][1,4]oxazepin-3-yl)-1H-1,2,4-triazole-3-carboxamide] are 11.4 nM, 5880 nM and 73 nM.
As to `COC(C)(C)C#Cc1ccc2c(c1)N(C)C(=O)[C@@H](NC(=O)c1cc(Oc3ccccc3)ccn1)CO2` [II-32, (S)—N-(7-(3-methoxy-3-methylbut-1-yn-1-yl)-5-methyl-4-oxo-2,3,4,5-tetrahydrobenzo[b][1,4]oxazepin-3-yl)-4-phenoxypicolinamide], the IC50 in test [1] (setting [7]) amounted to 2.1 nM; in test [2] (setting [8]), 57.4 nM; in test [3] (setting [6]), 50.5 nM.
Consider `CN1C(=O)[C@@H](NC(=O)c2cc(Oc3ccccc3F)ccn2)COc2ccc(C#CC(C)(C)C)cc21` [Compound I-102, (S)—N-(7-(3,3-dimethylbut-1-yn-1-yl)-5-methyl-4-oxo-2,3,4,5-tetrahydrobenzo[b][1,4]oxazepin-3-yl)-4-(2-fluorophenoxy)picolinamide], for which the concentration for half-maximal inhibition (IC50) in test [1] (setting [4]) came to 27.3 nM; in test [2] (setting [5]) it was 397 nM; in test [3] (setting [6]), 383 nM.
In the same order, the values of `CN1C(=O)[C@@H](NC(=O)c2ncn(Cc3ccccc3)n2)COc2ccc(CCC(=O)N3CCCC3)cc21` [Compound I-33, (S)-1-benzyl-N-(5-methyl-4-oxo-7-(3-oxo-3-(pyrrolidin-1-yl)propyl)-2,3,4,5-tetrahydrobenzo[b][1,4]oxazepin-3-yl)-1H-1,2,4-triazole-3-carboxamide] are 1.5 nM, 1230 nM and 14.5 nM.
Take `C[C@H](N)C(=O)OCC(C)(C)C#Cc1ccc2c(c1)N(C)C(=O)[C@@H](NC(=O)c1cc(Oc3ccccc3)ccn1)CO2` [Compound I-142, 2,2-dimethyl-4-((S)-5-methyl-4-oxo-3-(4-phenoxypicolinamido)-2,3,4,5-tetrahydrobenzo[b][1,4]oxazepin-7-yl)but-3-yn-1-yl L-alaninate]: the half-inhibitory concentration (IC50) in test [1] (setting [4]) was found to be 1.4 nM; in test [2] (setting [5]), 77.3 nM; in test [3] (setting [6]), 24.2 nM.
Turning to `CN1C(=O)[C@@H](NC(=O)n2cc(Cc3ccccc3)cn2)COc2ccc(C#Cc3cccnc3)cc21` [Compound I-214, (S)-4-Benzyl-N-(5-methyl-4-oxo-7-(pyridin-3-ylethynyl)-2,3,4,5-tetrahydrobenzo[b][1,4]oxazepin-3-yl)-1H-pyrazole-1-carboxamide], the figures for the IC50 in test [1] (setting [4]), in test [2] (setting [5]) and in test [3] (setting [6]) were 4 nM, 352 nM and 76.2 nM, respectively.
For the compound `CN1C(=O)[C@@H](NC(=O)n2cc(Cc3ccccc3)cn2)COc2ccc(C#CC3(O)COC3)cc21` [Compound I-216, (S)-4-Benzyl-N-(7-((3-hydroxyoxetan-3-yl)ethynyl)-5-methyl-4-oxo-2,3,4,5-tetrahydrobenzo[b][1,4]oxazepin-3-yl)-1H-pyrazole-1-carboxamide], the figures for the IC50 in test [1] (setting [7]), in test [2] (setting [8]) and in test [3] (setting [6]) were 0.5 nM, 28.5 nM and 18.8 nM, respectively.
On to `CN1C(=O)[C@@H](NC(=O)c2ncn(Cc3c(Cl)cccc3Cl)n2)COc2ccc(CN3CCN(c4ccncc4)CC3)cc21` [Compound I-21, (S)-1-(2,6-dichlorobenzyl)-N-(5-methyl-4-oxo-7-((4-(pyridin-4-yl)piperazin-1-yl)methyl)-2,3,4,5-tetrahydrobenzo[b][1,4]oxazepin-3-yl)-1H-1,2,4-triazole-3-carboxamide], for which the half-maximal inhibitory concentration (IC50) worked out at 2.5 nM in test [1] (setting [4]), 1310 nM in test [2] (setting [5]) and 77 nM in test [3] (setting [6]).
In the same order, the values of `CN1C(=O)[C@@H](NC(=O)n2cc(Cc3ccc(F)cc3)cn2)COc2ccc(C#CC(C)(C)N)cc21` [Compound I-226, (S)—N-(7-(3-amino-3-methylbut-1-yn-1-yl)-5-methyl-4-oxo-2,3,4,5-tetrahydrobenzo[b][1,4]oxazepin-3-yl)-4-(4-fluorobenzyl)-1H-pyrazole-1-carboxamide] are 17 nM, 1770 nM and 33 nM.
In the same order, the values of `CN1C(=O)[C@@H](NC(=O)c2cc(Oc3ccccc3)ccn2)COc2ccc(C#CC3(O)CCN(C(=O)c4cc(Oc5ccccc5)ccn4)CC3)cc21` [Compound I-131, (S)—N-(7-((4-hydroxy-1-(4-phenoxypicolinoyl)piperidin-4-yl)ethynyl)-5-methyl-4-oxo-2,3,4,5-tetrahydrobenzo[b][1,4]oxazepin-3-yl)-4-phenoxypicolinamide] are 3.7 nM, 65.8 nM and 446 nM.
Regarding `CN1C(=O)[C@@H](NC(=O)c2cc(Oc3ccccc3)ccn2)COc2ccc(N3CCC4(CCOCC4)C3)cc21` [II-31, (S)—N-(5-methyl-4-oxo-7-(8-oxa-2-azaspiro[4.5]decan-2-yl)-2,3,4,5-tetrahydrobenzo[b][1,4]oxazepin-3-yl)-4-phenoxypicolinamide], the IC50 in test [1] (setting [4]) is 8 nM; in test [2] (L929 cells, TNFa + zVAD, read-out: L929-CTG-recovery, L929, TNFa + zVAD (IC50)) it was 654 nM; in test [3] (setting [6]), 36.3 nM.
For the compound `CN1C(=O)[C@@H](NC(=O)n2cc(Cc3ccc(F)cc3)cn2)COc2ccc(C#CC3(O)CC4(COC4)C3)cc21` [Compound I-225, (S)-4-(4-Fluorobenzyl)-N-(7-((6-hydroxy-2-oxaspiro[3.3]heptan-6-yl)ethynyl)-5-methyl-4-oxo-2,3,4,5-tetrahydrobenzo[b][1,4]oxazepin-3-yl)-1H-pyrazole-1-carboxamide], the figures for the IC50 in test [1] (setting [4]), in test [2] (setting [5]) and in test [3] (setting [6]) were 0.5 nM, 32.5 nM and 22.7 nM, respectively.
With `CCN1C(=O)[C@@H](NC(=O)c2n[nH]c(Cc3ccccc3)n2)COc2ccc(C#CC(C)(C)O)cc21` [Compound I-91, (S)-5-benzyl-N-(5-ethyl-7-(3-hydroxy-3-methylbut-1-yn-1-yl)-4-oxo-2,3,4,5-tetrahydrobenzo[b][1,4]oxazepin-3-yl)-1H-1,2,4-triazole-3-carboxamide], the results for the IC50 in test [1] (setting [4]), in test [2] (setting [5]) and in test [3] (setting [6]) were 19.8 nM, 3.7 nM and 388 nM, respectively.
In the same order, the values of `CN1C(=O)[C@@H](NC(=O)c2cc(Oc3ccccc3)ccn2)COc2ccc(C#CC3(O)CCC3)cc21` [Compound I-120, (S)—N-(7-((1-hydroxycyclobutyl)ethynyl)-5-methyl-4-oxo-2,3,4,5-tetrahydrobenzo[b][1,4]oxazepin-3-yl)-4-phenoxypicolinamide] are 0.5 nM, 61.5 nM and 29.6 nM.
On the same counts, the results for `CN1C(=O)[C@@H](NC(=O)c2cc(Oc3ccccc3)ccn2)COc2ccc(C#Cc3cccc(C#N)n3)cc21` [II-33, (S)—N-(7-((6-cyanopyridin-2-yl)ethynyl)-5-methyl-4-oxo-2,3,4,5-tetrahydrobenzo[b][1,4]oxazepin-3-yl)-4-phenoxypicolinamide] are 1.8 nM, 33.1 nM and 101 nM.
Take `COC(=O)C(C)(C)C#Cc1ccc2c(c1)N(C)C(=O)[C@@H](NC(=O)c1n[nH]c(Cc3ccccc3)n1)CO2` [Compound I-76, methyl (S)-4-(3-(5-benzyl-1H-1,2,4-triazole-3-carboxamido)-5-methyl-4-oxo-2,3,4,5-tetrahydrobenzo[b][1,4]oxazepin-7-yl)-2,2-dimethylbut-3-ynoate]: the half-maximal inhibitory concentration (IC50) in test [1] (setting [4]) is 18.1 nM; in test [2] (setting [5]) it was 2.4 nM; in test [3] (setting [6]), 44.9 nM.
